The record followed here is patent US20150175877A1, “ENVIRONMENTALLY ACCEPTABLE MULTIFUNCTIONAL ADDITIVE” (SCHLUMBERGER TECHNOLOGY CORPORATION, priority 2013, published 2015).

For this experiment, the system named is bacteria in North Sea location water. The experiment is described as follows: Bacteria growth study in water using dipslides. In kind it is cell-based. Particulars: 35° C., dipslide; for Bacteria count: two replicated tests. The method, then: Bacteria Growth Study at 35° C. [95° F.]
Following is the qualitative study of bacteria growth in water using dipslides. A dipslide is used to test the presence of microorganisms in liquids. Dipslides are the fastest and easiest way to measure the microbial activity in liquid-based systems and in this testing it is used to evaluate the performance of Bodoxin AE.

`OCOCCOCO` [Bodoxin AE, (ethylenedioxy)dimethanol]: the “Bacteria count in location water when biocide is used (in words)” value (compared with tap or distilled water) is on record as “reduced significantly reaching the same level as tap or distilled water”. Further, the Bacteria count by setting is: (biocide conc. 0.50 gpt) <10^3 (CFU/ml); (biocide conc. 1.00 gpt) <10^3 (CFU/ml); (biocide conc. 1.50 gpt) <10^3 (CFU/ml).
